Assay [1] has as its target T1, SHP2 (Homo sapiens, UniProt Q06124).
T1 sequence (Q06124 1-593): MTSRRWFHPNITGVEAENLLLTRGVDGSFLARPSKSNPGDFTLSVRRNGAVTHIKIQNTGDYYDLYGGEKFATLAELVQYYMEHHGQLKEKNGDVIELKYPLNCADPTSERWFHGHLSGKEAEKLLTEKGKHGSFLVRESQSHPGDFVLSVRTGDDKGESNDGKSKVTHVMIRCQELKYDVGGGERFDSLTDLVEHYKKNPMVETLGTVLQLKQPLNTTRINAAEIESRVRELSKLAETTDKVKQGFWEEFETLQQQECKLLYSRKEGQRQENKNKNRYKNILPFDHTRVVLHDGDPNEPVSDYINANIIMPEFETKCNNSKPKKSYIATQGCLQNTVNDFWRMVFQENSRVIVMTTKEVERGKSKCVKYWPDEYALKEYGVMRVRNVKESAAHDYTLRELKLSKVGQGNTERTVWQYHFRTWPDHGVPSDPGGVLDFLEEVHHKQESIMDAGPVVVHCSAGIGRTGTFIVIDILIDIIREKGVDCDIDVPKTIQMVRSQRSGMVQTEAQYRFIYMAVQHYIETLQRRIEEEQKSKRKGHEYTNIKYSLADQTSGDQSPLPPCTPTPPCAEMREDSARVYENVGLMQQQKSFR
The assay can be described thus: Phosphatase assays (IC50), DiFMUP substrate.

For assay [2], the target named is T1, SHP2. Kind of assay: biochemical. As to conditions: read-out: SHP2 inhibition (%)@0.1 μM.
Assay [3] relates to MV-4-11. Kind of assay: Cell proliferation assay (MTS/PMS). As to conditions: Homo sapiens, MV4-11; MV-4-11 cell proliferation, MTS/PMS readout at day 8, compounds added 24 hours after plating; read-out: IC50. The class given is cell-based.

Our source for the IC50 and inhibition values is US10988466B2, “Heterocyclic derivatives useful as SHP2 inhibitors” (Jacobio Pharmaceuticals Co., Ltd., priority 2017, dated 2021).

Read-outs that look alike come from different tables or passages of the source.

Regarding `Nc1nc(N2CCC3(CC2)Cc2ncccc2[C@H]3N)cnc1Sc1ccncc1F` [Example 87, (S)-1′-(6-amino-5-((3-fluoropyridin-4-yl)thio)pyrazin-2-yl)-5,7-dihydrospiro[cyclopenta [b]pyridine-6,4′-piperidin]-5-amine], half-maximal inhibition in assay [1] (IC50) required 9 nM.

Take `CN(C)c1nccc(Sc2cnc(N3CCC4(CC3)Cc3ncccc3[C@H]4N)cn2)c1Cl` [Example 85, (S)-1′-(5-((3-chloro-2-(dimethyl-amino)pyridin-4-yl)thio)pyrazin-2-yl)-5,7-dihydrospiro [cyclopenta [b]pyridine-6,4′-piperidin]-5-amine]: half-maximal inhibition in assay [1] (IC50) required 6 nM.

In the case of `Nc1nc(N2CCC3(CC2)c2ccccc2C[C@H]3N)cnc1Sc1ccnc(N)c1Cl` [Example 1, (R)-1′-(6-amino-5-((2-amino-3-chloropyridin-4-yl)thio)pyrazin-2-yl)-2,3-dihydrospiro[indene-1,4′-piperidin]-2-amine], the inhibition (commonly the drop in the measured response relative to a control, in per cent) at 0.1 µM in assay [2] stood at 87%. In addition, the IC50 (in general, the concentration that gives 50% inhibition) in assay [1] (SHP2 0.5 nM activated with dPEG8 peptide, DiFMUP 12 μM, 30 min) is 8 nM.

For `Nc1nccc(Sc2cnc(N3CCC4(CC3)Cc3scnc3[C@H]4N)cn2)c1Cl` [Example 152, (S)-1′-(5-((2-amino-3-chloropyridin-4-yl)thio)pyrazin-2-yl)-4,6-dihydrospiro[cyclopenta[d]thiazole-5,4′-piperidin]-4-amine], in assay [1], the IC50 stood at 3 nM.

On to `Nc1nc(N2CCC3(CC2)Cc2ncccc2[C@H]3N)cnc1Sc1ccnc(N)c1Cl` [Example 10, (S)-1′-(6-amino-5-((2-amino-3-chloropyridin-4-yl)thio)pyrazin-2-yl)-5,7-dihydrospiro [cyclopenta[b]pyridine-6,4′-piperidin]-5-amine], for which the 50% inhibitory concentration (IC50) in assay [1] is 7 nM; in assay [3], 4 nM.

Turning to `Nc1nc(N2CCC3(CC2)Cc2scnc2[C@H]3N)cnc1Sc1ccncc1F` [Example 88, (S)-1′-(6-amino-5-((3-fluoropyridin-4-yl)thio)pyrazin-2-yl)-4,6-dihydrospiro[cyclopenta [d]thiazole-5,4′-piperidin]-4-amine], inhibition in assay [1] was half-maximal at 36 nM (IC50).

For `Nc1nc(N2CCC3(CC2)CC2CC2[C@H]3N)cnc1Sc1ccnc(N)c1Cl` (stereo partly drawn) [Example 81, (2R)-1′-(6-amino-5-((2-amino-3-chloropyridin-4-yl)thio)pyrazin-2-yl)spiro [bicyclo[3.1.0]hexane-3,4′-piperidin]-2-amine], in assay [2], the inhibition at 0.1 µM came out at 75%. Besides, the IC50 in assay [1] is 8 nM.

As for `N=C1c2cscc2CC12CCN(c1cnc(Sc3ccnc(N)c3Cl)c(N)n1)CC2` [Example 146, 3-((2-amino-3-chloropyridin-4-yl)thio)-6-(4-imino-4H,6H-spiro [cyclopenta[c]thiophene-5,4′-piperidin]-1′-yl)pyrazin-2-amine], in assay [2], the inhibition at 0.1 µM was found to be 82%. In assay [1], the IC50 was determined as 12 nM.

`Nc1nc(N2CCC3(CC2)Cc2ncsc2[C@H]3N)cnc1Sc1ccnc(N)c1Cl` [Example 155, (S)-1′-(6-amino-5-((2-amino-3-chloropyridin-4-yl)thio)pyrazin-2-yl)-4,6-dihydrospiro[cyclopenta[d]thiazole-5,4′-piperidin]-6-amine]: in assay [1], the midpoint of inhibition, the IC50, lay at 3 nM.

Regarding `Nc1nc(N2CCC3(CC2)Cc2nc(Cl)ccc2[C@H]3N)cnc1Sc1ccnc(N)c1Cl` [Example 19, (S)-1′-(6-amino-5-((2-amino-3-chloropyridin-4-yl)thio)pyrazin-2-yl)-2-chloro-5,7-dihydrospiro[cyclopenta [b]pyridine-6,4′-piperidin]-5-amine], in assay [2], the inhibition at 0.1 µM is 86%. Also, it took 7 nM to reach half-maximal inhibition in assay [1] (IC50).

Turning to `COc1nccc(Sc2ncc(N3CCC4(CC3)Cc3ncccc3[C@H]4N)nc2N)c1Cl` [Example 100, (S)-1′-(6-amino-5-((3-chloro-2-methoxypyridin-4-yl)thio)pyrazin-2-yl)-5,7-dihydro-spiro[cyclopenta [b]pyridine-6,4′-piperidin]-5-amine], in assay [2], the inhibition at 0.1 µM was determined as 88%. Also, the IC50 in assay [3] stood at 30 nM.

On to `Nc1nc(N2CCC3(CC2)Cc2ccc(O)cc2[C@H]3N)cnc1Sc1ccnc(N)c1Cl` [Example 137, (S)-1-amino-1′-(6-amino-5-((2-amino-3-chloropyridin-4-yl)thio)pyrazin-2-yl)-1,3-dihydrospiro[indene-2,4′-piperidin]-6-ol], for which the inhibition at 0.1 µM in assay [2] was 89%. In addition, the IC50 in assay [3] was determined as 3.3 nM.

Consider `Nc1cc(Sc2cnc(N3CCC4(CC3)Cc3ncccc3[C@H]4N)cn2)c(Cl)cn1` [Example 112, (S)-1′-(5-((2-amino-5-chloro-pyridin-4-yl)thio)pyrazin-2-yl)-5,7-dihydrospiro [cyclopenta [b]pyridine-6,4′-piperidin]-5-amine], for which the inhibition at 0.1 µM in assay [2] worked out at 87%. Moreover, the IC50 in assay [3] was 30 nM.

With `Nc1nc(N2CCC3(CC2)Cc2ncccc2[C@H]3N)cnc1Sc1cccc(Cl)c1Cl` [Example 84, (S)-1′-(6-amino-5-((2,3-dichloro-phenyl)thio)pyrazin-2-yl)-5,7-dihydrospiro[cyclopenta [b]pyridine-6, 4′-piperidin]-5-amine], it took 3 nM to reach half-maximal inhibition in assay [1] (IC50).

In assay [1], `N[C@@H]1c2cccnc2CC12CCN(c1cnc(Sc3ccncc3)cn1)CC2` [Example 86, (S)-1′-(5-(pyridin-4-ylthio)pyrazin-2-yl)-5,7-dihydrospiro [cyclopenta [b]pyridine-6,4′-piperidin]-5-amine] displayed an IC50 of 14 nM.

Take `CC(=O)N1CC(F)(F)c2c(Sc3ncc(N4CCC5(CC4)CC4CC4[C@H]5N)nc3N)cccc21` (stereo partly drawn) [Example 7, 1-(4-((3-amino-5-((2R)-2-aminospiro [bicyclo[3.1.0]hexane-3,4′-piperidin]-1′-yl)pyrazin-2-yl)thio)-3,3-difluoro-indolin-1-yl)ethan-1-one]: in assay [2], the inhibition at 0.1 µM amounted to 81%. For the same compound, in assay [1], inhibition was half-maximal at 22 nM (IC50).

Turning to `Nc1nccc(Sc2cnc(N3CCC4(CC3)Oc3ccccc3[C@H]4N)cn2)c1Cl` [Example 56, (R)-1′-(5-((2-amino-3-chloropyridin-4-yl)thio)pyrazin-2-yl)-3H-spiro[benzofuran-2,4′-piperidin]-3-amine], the inhibition at 0.1 µM in assay [2] amounted to 71%. In addition, the half-maximal inhibitory concentration (IC50) in assay [3] was found to be 10.4 nM.

Take `Nc1nccc(Sc2cnc(N3CCC4(CC3)Cc3sc(Cl)nc3[C@H]4N)cn2)c1Cl` [Example 95, (S)-1′-(5-((2-amino-3-chloropyridin-4-yl)thio)pyrazin-2-yl)-2-chloro-4,6-dihydrospiro [cyclopenta[d]thiazole-5,4′-piperidin]-4-amine]: the inhibition at 0.1 µM in assay [2] turned out to be 73%. The IC50 in assay [3] amounted to 10 nM.

Take `Nc1nccc(Sc2cnc(N3CCC4(CC3)Nc3ccccc3[C@H]4N)cn2)c1Cl` [Example 71, (R)-1′-(5-((2-amino-3-chloropyridin-4-yl)thio)pyrazin-2-yl)spiro[indoline-2, 4′-piperidin]-3-amine]: the inhibition at 0.1 µM in assay [2] came out at 86%. The IC50 in assay [3] was 13 nM.

With `Nc1nc(N2CCC3(CC2)Cc2ncccc2C3N)cnc1Sc1ccnc(N)c1Cl` (centres unmarked) [Example 121, 1′-(6-amino-5-((2-amino-3-chloropyridin-4-yl)thio)pyrazin-2-yl)-5,7-dihydrospiro [cyclopenta[b]pyridine-6,4′-piperidin]-5-amine], in assay [1], the IC50 is 56 nM.
